pIC50: −log10 of the molar value. Read-outs that look alike come from different tables or passages of the source.
What was measured:
[1] = target: T1, His6-Flag-TEV-NLRP3 (134-1036) (Homo sapiens, UniProt Q96P20); assay: NLRP3 fluorescence polarization (FP) binding assay, competition with probe NP3-301; conditions: competition with NP3-301 for binding to NLRP3 (134-1036), 30 nM protein
T1 construct: fused on or other part: N-terminal His6 tag, Flag tag and TEV cleavage site
Summary of the method: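 Compound was preincubated 60 min at room temperature with NLRP3 protein (30 nM final) in 50 mM Hepes pH 7.4, 150 mM NaCl, 2.5 mM MgCl2, 1 mM TCEP, 100 μM ATP. Probe NP3-301 (0.5 nM final) was then added for 30 min. Fluorescence polarization was read at ex 485/em 535 nm, and IC50 was obtained by four-parameter logistic fit.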

[2] = tested on: iodoacetic acid (MIA)-induced SD rat knee osteoarthritis model; assay: Iodoacetic acid (MIA)-induced SD rat knee osteoarthritis model; format: in vivo, SD rats; conditions: 30 mg/kg orally once a day from Day 7 to Day 42; compared with model blank control group; 21 days to 42 days after modeling
Procedure: Purpose: Evaluate the efficacy of MCC950 (Positive reference compound) and compound 111 of the present disclosure on iodoacetic acid (MIA)-induced SD rat knee osteoarthritis model.
Experimental materials: Experimental male SD rats, 4 weeks old.
Model induction began after the experimental animals were adapted to the animal environment for 7 days. Day 0, the rats were anesthetized, the hair around the left knee joint was removed, and the skin was disinfected. The left leg was flexed 90° to expose the patellar platform. The depression in the middle of the platform was touched by hand to find the femoral condyle, patella and ligament. The syringe needle was inserted from the bottom of the patella on both sides of the patellar ligament to the direction of the femoral condyle. When a clear sense of empty space was felt, 50 μL of iodoacetic acid solution was injected. Day 7 Grouping was performed according to the width of the knee joint on the induced side. The groups were: normal control group (healthy control without modeling, 5% DMSO+10% Solutol+85% Saline), model blank control group (5% DMSO+10% Solutol+85% Saline), MCC950 30 mg/kg, and compound 111 of the present disclosure 30 mg/kg. Starting from Day 7, the normal control group and the model blank control group were given the solvent (5% DMSO+10% Solutol+85% Saline) orally once a day, and the other groups were given the corresponding compounds orally once a day until the end of the administration on Day 42. The knee joint width and body weight of the rats were measured once on Day 7, 14, 21, 28, 35, and 42.

[3] = Pharmacokinetic evaluation in mice; format: in vivo; conditions: mouse, plasma, ICR male mice
Procedure: Purpose: ICR male mice were selected as test animals. The LC-MS/MS method was used to quantitatively determine the drug concentration in the plasma of mice at different time points after intravenous injection or oral administration of the test compound to evaluate the pharmacokinetic characteristics of the test drug in mice.
Experimental materials: ICR mice (male, 15-35g, 5-10 weeks old, Shanghai Xipu-Bikai Experimental Animal Co., Ltd.)
The clear solution of the test compound was injected into ICR mice via the tail vein (without fasting, vehicle: 5% DMSO/10% Solutol/85% Saline) and administered to ICR mice by gavage (fasting for 10-14h). For intravenous administration, blood was collected from the submandibular venous plexus at 0.033, 0.083, 0.25, 0.5, 1, 2, 4, 8, and 24 hrs after administration, placed in an EDTA-K2 anticoagulant tube (Jiangsu Kangjian Medical Supplies Co., Ltd.), mixed, and centrifuged at 2-8° C., 6800 g for 6 minutes to obtain plasma; for oral gavage administration, blood was collected from the submandibular venous plexus at 0.083, 0.25, 0.5, 1, 2, 4, 6, 8, and 24 hrs after administration, placed in an EDTA-K2 anticoagulant tube (Jiangsu Kangjian Medical Supplies Co., Ltd.), mixed, and centrifuged at 2-8° C., 6800 g for 6 minutes to obtain plasma. The blood drug concentration was determined by LC-MS/MS, and the pharmacokinetic software Phoenix WinNonlinTM Version 7.0 (Pharsight, USA) was used to calculate the relevant pharmacokinetic parameters by the non-compartmental linear logarithmic trapezoidal method. The compounds of the present disclosure have good pharmacokinetic characteristics in mice, and the test results of representative compounds are shown in Table 8.

T1 sequence (Q96P20 134-1036 limits assumed): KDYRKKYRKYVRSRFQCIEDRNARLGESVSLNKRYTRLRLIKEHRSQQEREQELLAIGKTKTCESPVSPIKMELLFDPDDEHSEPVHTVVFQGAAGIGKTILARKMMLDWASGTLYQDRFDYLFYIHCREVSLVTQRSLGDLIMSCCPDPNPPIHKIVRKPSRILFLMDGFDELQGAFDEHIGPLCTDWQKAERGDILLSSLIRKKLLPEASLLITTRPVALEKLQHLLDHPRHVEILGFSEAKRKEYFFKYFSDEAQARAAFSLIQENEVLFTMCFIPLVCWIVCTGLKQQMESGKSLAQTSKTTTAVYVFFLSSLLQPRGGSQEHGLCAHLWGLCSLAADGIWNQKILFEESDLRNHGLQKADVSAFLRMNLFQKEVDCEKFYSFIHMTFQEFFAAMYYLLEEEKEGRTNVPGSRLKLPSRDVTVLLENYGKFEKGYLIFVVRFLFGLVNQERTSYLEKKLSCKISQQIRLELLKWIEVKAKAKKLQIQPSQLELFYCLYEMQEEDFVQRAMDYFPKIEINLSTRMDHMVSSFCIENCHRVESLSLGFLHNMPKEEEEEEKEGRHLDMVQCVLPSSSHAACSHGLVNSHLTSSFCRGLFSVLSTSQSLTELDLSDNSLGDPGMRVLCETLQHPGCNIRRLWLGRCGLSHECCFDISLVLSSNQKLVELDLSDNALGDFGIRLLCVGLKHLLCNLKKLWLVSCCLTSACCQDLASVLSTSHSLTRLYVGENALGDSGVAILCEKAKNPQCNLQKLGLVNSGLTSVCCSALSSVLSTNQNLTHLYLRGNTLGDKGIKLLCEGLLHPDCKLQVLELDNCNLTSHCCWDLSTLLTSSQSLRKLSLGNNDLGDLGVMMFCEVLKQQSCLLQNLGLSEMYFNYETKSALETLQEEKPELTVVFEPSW

Structure (SMILES): CC(=O)N1CCOC[C@H]1CNc1nc2nc(-c3c(C)cc(C(F)(F)F)cc3O)ccc2o1 [Compound 111]
- pIC50 [1]: ≥ 7.00
- widening of the knee joints (knee joint width) [2]: could significantly inhibit the widening of the knee joints
- clearance ([3]; 1 mg/kg, Dosage IV/PO 1/3 mg/kg): 19.2 mL/min/kg
- Vd ([3]; 1 mg/kg, Dosage IV/PO 1/3 mg/kg, read-out: Vdss): 1.93 L/kg
- Cmax ([3]; Dosage IV/PO 1/3 mg/kg): 1550 ng/mL
- bioavailability ([3]; Dosage IV/PO 1/3 mg/kg): 137%
- AUC(0-t) ([3]; IV 1 mg/kg, read-out: AUC0-last IV): 834 ng·h/mL
- half-life ([3]; IV 1 mg/kg, read-out: T1/2 (IV, h) (converted)): 2.12 h
- AUC(0-t) ([3]; PO 3 mg/kg, read-out: AUC0-last PO): 3440 ng·h/mL
